Laboratory results from the supplement of paper PMC10307832.

What was measured:
Test in all cases: relative viability (nuclei count vs DMSO), 5 days (fraction); higher = more cells survive
[1] = compound: CCCS(=O)(=O)Nc1ccc(F)c(C(=O)c2c[nH]c3ncc(-c4ccc(Cl)cc4)cc23)c1F [Vemurafenib] + COc1cc2c(Oc3ccc(NC(=O)C4(C(=O)Nc5ccc(F)cc5)CC4)cc3F)ccnc2cc1OCCCN1CCOCC1 [Foretinib] (partner 0.25 µM)
Method in brief: (§1)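 Each reported value is a median over duplicate plates. It expresses relative viability: treated-well nuclei count divided by vehicle-well nuclei count. Lung cancer cell lines in 1536-well plates were dosed by pin tool a day after seeding, alone with one drug or with a fixed anchor-drug dose plus five library-drug doses (not always all listed) in √10 steps, and nuclei were counted after 5 days.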

[2] = compound: CCCS(=O)(=O)Nc1ccc(F)c(C(=O)c2c[nH]c3ncc(-c4ccc(Cl)cc4)cc23)c1F [Vemurafenib] + NC(=O)Nc1cc(-c2cccc(F)c2)sc1C(=O)N[C@H]1CCCNC1 [AZD7762] (partner 0.2 µM)
Method in brief: as §1

[3] = compound: COc1cccc2cc(-c3nc([C@H]4CC[C@H](C(=O)O)CC4)n4ncnc(N)c34)[nH]c12 [OSI-027] + C[C@@H](Oc1cc(-c2cnn(C3CCNCC3)c2)cnc1N)c1c(Cl)ccc(F)c1Cl [Crizotinib] (partner 1 µM)
Method in brief: as §1

[4] = compound: CCCS(=O)(=O)Nc1ccc(F)c(C(=O)c2c[nH]c3ncc(-c4ccc(Cl)cc4)cc23)c1F [Vemurafenib] + CS(=O)(=O)N1CCN(Cc2cc3nc(-c4cccc5[nH]ncc45)nc(N4CCOCC4)c3s2)CC1 [Pictilisib] (partner 1 µM)
Method in brief: as §1

Row | Cell Line | relative viability ([1]; first compound 0.03162 µM) | relative viability ([1]; first compound 0.1 µM) | relative viability ([1]; first compound 0.3162 µM) | relative viability ([1]; first compound 1 µM) | relative viability ([2]; first compound 0.03162 µM) | relative viability ([2]; first compound 0.1 µM) | relative viability ([2]; first compound 0.3162 µM) | relative viability ([2]; first compound 1 µM) | relative viability ([3]; first compound 0.01 µM) | relative viability ([3]; first compound 0.03162 µM) | relative viability ([3]; first compound 0.1 µM) | relative viability ([3]; first compound 0.3162 µM) | relative viability ([3]; first compound 1 µM) | relative viability ([4]; first compound 0.03162 µM) | relative viability ([4]; first compound 0.1 µM) | relative viability ([4]; first compound 0.3162 µM) | relative viability ([4]; first compound 1 µM)
1 | LK-2 | 1.37 | 0.913 | 1.09 | 0.915 | 0.397 | 0.428 | 0.406 | 0.312 | 0.199 | 0.229 | 0.273 | 0.242 | 0.203 | 0.618 | 0.49 | 0.661 | 0.425
2 | LOU-NH91 | 0.914 |  |  | 0.975 | 0.735 | 0.682 | 0.594 | 0.816 | 0.73 | 0.726 | 0.693 | 0.681 | 0.508 | 0.535 | 0.459 |  | 0.525
3 | NCI-H520 | 0.702 | 0.763 | 0.897 | 0.626 |  |  |  |  | 0.813 | 0.848 | 0.876 | 0.424 | 0.286 | 0.283 | 0.369 | 0.372 | 0.268
4 | NCI-H522 |  |  |  |  | 0.797 | 0.855 | 0.755 | 0.869 |  |  |  |  |  |  |  |  | 
5 | NCI-H661 | 1.06 | 0.956 | 1.08 | 0.965 |  |  |  |  | 0.998 | 1.1 | 1.14 | 1.15 | 0.645 | 0.347 | 0.351 | 0.292 | 0.433
6 | NCI-H1299 | 1.05 | 1.06 | 1 | 1.09 |  |  |  |  | 0.994 | 0.984 | 0.937 | 1.04 | 0.937 | 0.732 | 0.719 | 0.843 | 0.622
